Data published in patent publication EP4541376A1, “ANTIBODY-DRUG CONJUGATES” (priority 2023, dated 2025).
Numbered stars: 1 amine (or outer) side, 2 acyl side, 3 side chain; on linkers, the order of the positions; unused ones are H or OH. Square brackets hold non-standard residues; d marks the D form. Peptide text beside a SMILES is read from it. * marks the point of attachment. Exatecan = CC[C@@]1(O)C(=O)OCc2c1cc1n(c2=O)Cc2c-1nc1cc(F)c(C)c3c1c2[C@@H](N*)CC3; Propanoyl(3-maleimido) = O=C1C=CC(=O)N1CCC(=O)*; PABC = O=C(OCc1ccc(N[*:1])cc1)[*:2]

Columns and labels:
[1] = Aggregation study during conjugation to test antibody (% monomer by SEC); type: physicochemical
Description: Aggregation is a process in which molecules self-associate with each other. In the context of the present invention, aggregation levels are assessed during the conjugation of a linker construct to an antibody. During conjugation, aggregation is quantified in terms of percentage monomer content. High percentage monomer values typically equate to a lower degree of aggregation. Percentage monomer values of 93% or 95% or higher typically mean negligible levels of aggregation or none, whereas values below this threshold typically translate to higher levels of aggregation.
2 mg of test monoclonal antibody at 8.87 mg/ml was pH adjusted with 5% 0.5 M Tris, 0.025 M EDTA, pH 8.5 and reduced with 2.3 mol. eq. TCEP and then conjugated with 6mol. eq. drug linker. […] Percentage monomer values of 95% or greater are assessed as low aggregation.
Aggregation levels were assessed during the conjugation to the test antibody.
During conjugation, we are ideally targeting a monomer content or percentage monomer of 95% or above. Low percentage monomer values usually translate to a higher degree of aggregation. One could therefore agree that percentage monomer values of 95% or higher mean very low levels of aggregation or none, whereas values below this threshold often translate to higher levels of aggregation.

[2] = Reverse-Phase HPLC retention time correlation study (hydrophobicity); type: physicochemical; conditions: RP-HPLC; high Rt associated to hydrophobic constructs, low Rt to hydrophilic ones
Description: • Column: Phenomenex Gemini NX 5m, C18, 110 Å, 150 × 4.6 mm • Instrument: Shimadzu LC-2030 • Mobile phase: A) water (0.05% TFA), B) acetonitrile (0.05% TFA) • Gradient: 20-70% B over 15 min, flow 1.0 mL/min
A correlation study was also carried out using Reverse-Phase HPLC (RP-HPLC). The two constructs were injected in RP-HPLC and retention times (Rt) correlated with hydrophobicity - i.e., high Rt was associated to hydrophobic constructs whereas low Rt to hydrophilic ones.

CC[C@@]1(O)C(=O)OCc2c1cc1n(c2=O)Cc2c-1nc1cc(F)c(C)c3c1c2[C@@H](NC(=O)OCc1ccc(NC(=O)[C@H](C)NC(=O)[C@@H](NC(=O)CNC(=O)CNC(=O)CNC(=O)CNC(=O)CNC(=O)CCN2C(=O)C=CC2=O)C(C)C)cc1)CC3 [Mal-Gly5-VA-PABC-Exatecan] ({Propanoyl(3-maleimido)}-GGGGGVA[PABC]-Exatecan)
Aggregation (% monomer) ([1]; % monomer by SEC after conjugation to test monoclonal antibody, 95% or greater assessed as low aggregation): 98%
Aggregation ([1]; grade in words, drug linker conjugated to test monoclonal antibody (2.3 mol. eq. TCEP, 6 mol. eq. drug linker)): None
Rt [2]: 9.76 min
